Data reported in US20110245294A1, “METHODS OF IMPROVING QUALITY OF SLEEP” (THERAVIDA, INC., priority 2010, published 2011).

How the values were obtained:
healthy volunteers = details: some studies have suggested; cited from earlier work
[1] = test system: patients being treated for OAB
Text: Enrollment of subjects already taking this medication was used to enable the collection of steady-state baseline information and to minimize discontinuations during the 4-week treatment period. On three consecutive days, subjects were asked to complete paper diaries where the subject answered questions related to the degree of difficulty of sleep and responded by using a VAS. These questions and VAS have been validated and used in other clinical studies. Furthermore, each subject relinquished the completed diary at the end of each treatment period following a review by clinic staff.
The methods used to collect information for assessment of quality of sleep, subjects were asked specific questions and they rated their quality of sleep using a VAS. The mean of the values obtained on each of the three days was used as the sole value for the baseline or treatment value. The methods used to evaluate effect on quality of sleep of the combination and oxybutynin alone are widely used and considered standard.
The VAS is a validated scale utilized in clinical trials and registrational studies of many drugs. Patients were instructed on how to complete the diary over 3 consecutive days and perform VAS assessments for quality of sleep on the diary days. The ratings were from 0 to 100 on a 100-mm line, and the patient was asked to rate themself by marking the horizontal line. For instance, quality of sleep was quantified as 0=easy and 100=difficult.

## O=C(O[C@H]1C[C@H]2CC[C@@H](C1)[N+]21CCCC1)C(O)(c1ccccc1)c1ccccc1 [trospium]
Healthy volunteers
  effect on sleep: adverse effect on the sleep

## CCN(CC)CC#CCOC(=O)C(O)(c1ccccc1)C1CCCCC1 (centres unmarked) [Oxybutynin, oxybutynin]
[1]; 100-point mm scale, reduction from baseline
  VAS quality of sleep response versus baseline or monotherapy, in words: unchanged from baseline
[1]; ITT population, N = 42, lower scores indicate improvement from baseline, P value 0.0073 between treatments
  Change in LSM from Baseline in Quality of Sleep: 3.7 mm
[1]; mean over subjects, 0=easy, 100=difficult, 2 weeks treatment, baseline mean 37.6 mm
  Quality of Sleep Value (VAS), mean: 41.3 mm
Healthy volunteers
  effect on sleep: adverse effect on the sleep
